The values below come from patent publication US11318134B2, “Benzamide compounds” (priority 2018, dated 2022).

SMILES strings stand for the structures. Where only a bound is given, the exact number is not on record here.

One experiment concerns the target Bcl-XL (Homo sapiens (Human), UniProt Q07817). The experiment can be described thus: Bcl-2 protein family binding assay (Bcl2scan platform), Bcl-XL. To be noted: BIM peptide ligand, 11-point dilution, read-out: Bc1-XL Kd (nm). On the procedure: (§1) E. coli were grown to log-phase and infected with T7 phage from a frozen stock (multiplicity of infection=0.4) and incubated with shaking at 32° C. until lysis (90-150 minutes). The lysates were centrifuged (5,000×g) and filtered (0.2 μm) to remove cell debris. […] The liganded beads were blocked with excess biotin and washed with blocking buffer (SeaBlock (Pierce), 1% BSA, 0.05% Tween 20, 1 mM DTT) to remove unbound ligand and to reduce non-specific phage binding. […] Test compounds were prepared as 100× stocks in 100% DMSO. Kds were determined using an 11-point 3-fold compound dilution series with one DMSO control point. […] The compounds were then diluted directly into the assays such that the final concentration of DMSO was 0.9%. All reactions performed in polypropylene 384-well plates. Each was a final volume of 0.02 ml. […] The BCL2 concentration in the eluates was measured by qPCR. Binding constants (Kds) were calculated with a standard dose-response curve using the Hill equation:
(§2) [formula] The Hill Slope was set to −1. Curves were fitted using a non-linear least square fit with the Levenberg-Marquardt algorithm.

Another experiment deals with Bcl-2 (Homo sapiens (Human), UniProt P10415). The experiment can be described thus: Bcl-2 protein family binding assay (Bcl2scan platform), Bcl-2. To be noted: BIM peptide ligand, 11-point dilution, read-out: Bc1-2 Kd (nm). As to the method: as §1, §2
Chain of Bcl-2 (P10415 whole entry): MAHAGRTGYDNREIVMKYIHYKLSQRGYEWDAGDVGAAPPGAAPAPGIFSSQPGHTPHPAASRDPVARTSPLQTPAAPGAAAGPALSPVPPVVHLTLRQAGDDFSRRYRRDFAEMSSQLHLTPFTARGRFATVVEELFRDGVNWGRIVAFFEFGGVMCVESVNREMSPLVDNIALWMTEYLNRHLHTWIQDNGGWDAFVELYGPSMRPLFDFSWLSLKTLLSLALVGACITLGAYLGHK
The next experiment concerns RS4;11 cells. The experiment can be described thus: RS4;11 cell proliferation assay (CellTiter-Glo). It counts as cell-based. To be noted: Homo sapiens, RS4-11, 48 h, read-out: RS4;11 (nM), CTG IC50. As to the method:
Cell proliferation was measured using the CellTiter-Glo® Luminescent Cell Viability Assay. The assay involved the addition of a single reagent (CellTiter-Glo® Reagent) directly to cells cultured in serum-supplemented medium.
Each compound evaluated was prepared as a DMSO stock solution (10 mM). Compounds were tested in duplicate on each plate, with a 10-point serial dilution curve (1:3 dilution). Compound treatment (1.0 μL) was added from the compound dilution plate to the cell plate. The highest compound concentration was 10 μM (final), with a 0.1% final DMSO concentration. Plates were then incubated at 37° C., 5% CO2. After 48 h of compound treatment for RS4;11 or 72 h for NCI-H1963, cell plates were equilibrated at rt for approximately 30 mins. An equi-volume amount of CellTiter-Glo® Reagent (40 μL) was added to each well. […] Luminescence was recorded using a Envision plate reader according to CellTiter-Glo protocol. IC50 of each compound was calculated using GraphPad Prism by nonlinear regression analysis.
In general terms: Cellular ATP, detected with luciferase, serves as a proxy for viable cell number.

Chain of Bcl-XL (Q07817 whole entry): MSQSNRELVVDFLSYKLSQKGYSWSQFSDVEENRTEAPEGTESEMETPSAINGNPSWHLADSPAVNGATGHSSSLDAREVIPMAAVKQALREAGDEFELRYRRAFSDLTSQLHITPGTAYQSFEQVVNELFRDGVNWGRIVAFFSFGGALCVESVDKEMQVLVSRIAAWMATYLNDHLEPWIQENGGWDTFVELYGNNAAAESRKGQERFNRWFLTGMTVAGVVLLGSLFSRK

Broadly, the Kd is the concentration at which binding is half-saturated. In the case of `CC1(C)CCC(CN2CCN(c3ccc(C(=O)NS(=O)(=O)c4ccc(NCC5(F)CCOCC5)c([N+](=O)[O-])c4)c(Oc4cnc5[nH]ccc5c4)c3)CC2)=C(C23CC(C(F)(F)F)(C2)C3)C1` [Example 30, 2-((1H-pyrrolo[2,3-b]pyridin-5-yl)oxy)-4-(4-((4,4-dimethyl-2-(3-(trifluoromethyl)bicyclo[1.1.1]pentan-1-yl)cyclohex-1l-en-1-yl)methyl)piperazin-1-yl)-N-((4-(((4-fluorotetrahydro-2H-pyran-4-yl)methyl)amino)-3-nitrophenyl)sulfonyl)benzamide], the Kd on Bcl-XL is more than 100 nM; on Bcl-2 it was less than 10 nM. Also, the IC50 with RS4;11 cells is less than 100 nM.
As to `CC(C)C12CC(C3=C(CN4CCN(c5ccc(C(=O)NS(=O)(=O)c6ccc(NCC7CCOCC7)c([N+](=O)[O-])c6)c(Oc6cnc7[nH]ccc7c6)c5)CC4)CCC(C)(C)C3)(C1)C2` [Example 39, 2-((1H-pyrrolo[2,3-b]pyridin-5-yl)oxy)-4-(4-((2-(3-isopropylbicyclo[0.1.1]pentan-1-yl)-4,4-dimethylcyclohex-1-en-1-yl)methyl)piperazin-1-yl)-N-((3-nitro-4-(((tetrahydro-2H-pyran-4-yl)methyl)amino)phenyl)sulfonyl)benzamide], the Kd on Bcl-XL is more than 100 nM; on Bcl-2, 10 to 100 nM. Moreover, the IC50 with RS4;11 cells was less than 100 nM.
On the same counts, the results for `CC1(C)CCC(CN2CCN(c3ccc(C(=O)NS(=O)(=O)c4ccc(NCC5CCOCC5)c([N+](=O)[O-])c4)c(Oc4cnc5[nH]ccc5c4)c3)CC2)=C(C23CC(F)(C2)C3)C1` [Example 10, 2-(1H-pyrrolo[2,3-b]pyridin-5-yloxy)-4-(4-((2-(3-fluorobicyclo[1.1.1]pentan-1-yl)-4,4-dimethylcyclohex-1-enyl)methyl)piperazin-1-yl)-N-(3-nitro-4-((tetrahydro-2H-pyran-4-yl)methylamino)phenylsulfonyl)benzamide] are more than 100 nM, less than 10 nM and less than 100 nM.
As to `CC1(C)CCC(CN2CCN(c3ccc(C(=O)NS(=O)(=O)c4ccc(NCC5CCOCC5)c([N+](=O)[O-])c4)c(Oc4cnc5[nH]ccc5c4)c3)CC2)=C(C23CC(Cl)(C2)C3)C1` [Example 1, 2-(1H-Pyrrolo[2,3-b]pyridin-5-yl-oxy)-4-(4-((2-(3-chlorobicyclo[1.1.1]pentan-1-yl)-4,4-dimethylcyclohex-1-en-yl)methyl)piperazin-1-yl)-N-(3-nitro-4-((tetrahydro-2H-pyran-4-yl)methylamino)phenylsulfonyl)benzamide], the equilibrium dissociation constant (Kd) on Bcl-XL is more than 100 nM; at Bcl-2 it was less than 10 nM. Besides, the IC50 in the experiment on RS4;11 cells is less than 100 nM.
For `CC1(C)CCC(C23CC(C)(C2)C3)=C(CN2CCN(c3ccc(C(=O)NS(=O)(=O)c4ccc(N[C@H](CCN5CCOCC5)CSc5ccccc5)c(S(=O)(=O)C(F)(F)F)c4)cc3)CC2)C1` [Example 47, (R)-4-(4-((5,5-Dimethyl-2-(3-methylbicyclo[1.1.1]pentan-1-yl)cyclohex-1-enyl)methyl)piperazin-1-yl)-N-(4-(4-morpholino-1-(phenylthio)butan-2-ylamino)-3-(trifluoromethylsulfonyl)phenylsulfonyl)benzamide], the figures for the Kd at Bcl-XL and at Bcl-2 were 10 to 100 nM and more than 100 nM, respectively. For the same compound, in the experiment with RS4;11 cells, the IC50 is more than 1000 nM.
Turning to `CN1CCC(F)(CNc2ccc(S(=O)(=O)NC(=O)c3ccc(N4CCN(CC5=C(C67CC(C(F)F)(C6)C7)CC(C)(C)CC5)CC4)cc3Oc3cnc4[nH]ccc4c3)cc2[N+](=O)[O-])CC1` [Example 38, 2-((1H-pyrrolo[2,3-b]pyridin-5-yl)oxy)-4-(4-((2-(3-(difluoromethyl)bicyclo[1.1.1]pentan-1-yl)-4,4-dimethylcyclohex-1-en-1-yl)methyl)piperazin-1-yl)-N-((4-(((4-fluoro-1-methylpiperidin-4-yl)methyl)amino)-3-nitrophenyl)sulfonyl)benzamide], the Kd at Bcl-XL is 10 to 100 nM; on Bcl-2, less than 10 nM. Also, the IC50 in the experiment on RS4;11 cells was less than 100 nM.
For `CCC12CC(C3=C(CN4CCN(c5ccc(C(=O)NS(=O)(=O)c6ccc(NCC7CCOCC7)c([N+](=O)[O-])c6)c(Oc6cnc7[nH]ccc7c6)c5)CC4)CCC(C)(C)C3)(C1)C2` [Example 23, 2-(1H-pyrrolo[2,3-b]pyridin-5-yloxy)-4-(4-((2-(3-ethylbicyclo[1.1.1]pentan-1-yl)-4,4-dimethylcyclohex-1-enyl)methyl)piperazin-1-yl)-N-(3-nitro-4-((tetrahydro-2H-pyran-4-yl)methylamino)phenylsulfonyl)benzamide], the results for the Kd on Bcl-XL and on Bcl-2 were more than 100 nM and less than 10 nM, respectively. For the same compound, the IC50 in the experiment on RS4;11 cells is less than 100 nM.
The like results for `CC1(C)CCC(CN2CCN(c3ccc(C(=O)NS(=O)(=O)c4ccc(OCC5(F)CCOCC5)c([N+](=O)[O-])c4)c(Oc4cnc5[nH]ccc5c4)c3)CC2)=C(C23CC(C(F)(F)F)(C2)C3)C1` [Example 31, 2-((1H-pyrrolo[2,3-b]pyridin-5-yl)oxy)-4-(4-((4,4-dimethyl-2-(3-(trifluoromethyl)bicyclo[1.1.1]pentan-1-yl)cyclohex-1-en-1-yl)methyl)piperazin-1-yl)-N-((4-((4-fluorotetrahydro-2H-pyran-4-yl)methoxy)-3-nitrophenyl)sulfonyl)benzamide] were, in that order, more than 100 nM, less than 10 nM and less than 100 nM.
Take `CC1(C)CCC(CN2CCN(c3ccc(C(=O)NS(=O)(=O)c4ccc(NCC5CCOCC5)c([N+](=O)[O-])c4)c(Oc4cnc5[nH]ccc5c4)c3)CC2)=C(C23CC(C(F)(F)F)(C2)C3)C1` [Example 28, 2-((1H-pyrrolo[2,3-b]pyridin-5-yl)oxy)-4-(4-((4,4-dimethyl-2-(3-(trifluoromethyl)bicyclo[1.1.1]pentan-1-yl)cyclohex-1-en-1-yl)methyl)piperazin-1-yl)-N-((3-nitro-4-(((tetrahydro-2H-pyran-4-yl)methyl)amino)phenyl)sulfonyl)benzamide]: the Kd at Bcl-XL was more than 100 nM; at Bcl-2, less than 10 nM. Besides, the IC50 in the experiment with RS4;11 cells is less than 100 nM.
On the same counts, the results for `CC1(C)CCC(CN2CCN(c3ccc(C(=O)NS(=O)(=O)c4ccc(OCC5(F)CCOCC5)c([N+](=O)[O-])c4)c(Oc4cnc5[nH]ccc5c4)c3)CC2)=C(C23CC(C)(C2)C3)C1` [Example 16, 2-((1H-pyrrolo[2,3-b]pyridin-5-yl)oxy)-4-(4-((4,4-dimethyl-2-(3-methylbicyclo[1.1.1]pentan-1-yl)cyclohex-1-en-1-yl)methyl)piperazin-1-yl)-N-((4-((4-fluorotetrahydro-2H-pyran-4-yl)methoxy)-3-nitrophenyl)sulfonyl)benzamide] are more than 100 nM, less than 10 nM and less than 100 nM.
Consider `CN1CCC(F)(CNc2ccc(S(=O)(=O)NC(=O)c3ccc(N4CCN(CC5=C(C67CC(C)(C6)C7)CC(C)(C)CC5)CC4)cc3Oc3cnc4[nH]ccc4c3)cc2[N+](=O)[O-])CC1` [Example 13, 2-((1H-pyrrolo[2,3-b]pyridin-5-yl)oxy)-4-(4-((4,4-dimethyl-2-(3-methylbicyclo[1.1.1]pentan-1-yl)cyclohex-1-en-1-yl)methyl)piperazin-1-yl)-N-((4-(((4-fluoro-1-methylpiperidin-4-yl)methyl)amino)-3-nitrophenyl)sulfonyl)benzamide], for which the figures for the Kd on Bcl-XL and on Bcl-2 were more than 100 nM and less than 10 nM, respectively. In addition, in the experiment on RS4;11 cells, the IC50 is less than 100 nM.
On the same counts, the results for `CC1(C)CCC(CN2CCN(c3ccc(C(=O)NS(=O)(=O)c4ccc(OCC5(F)CCOCC5)c([N+](=O)[O-])c4)c(Oc4cnc5[nH]ccc5c4)c3)CC2)=C(C23CC(C(F)F)(C2)C3)C1` [Example 36, 2-((1H-pyrrolo[2,3-b]pyridin-5-yl)oxy)-4-(4-((2-(3-(difluoromethyl)bicyclo[1.1.1]pentan-1-yl)-4,4-dimethylcyclohex-1-en-1-yl)methyl)piperazin-1-yl)-N-((4-((4-fluorotetrahydro-2H-pyran-4-yl)methoxy)-3-nitrophenyl)sulfonyl)benzamide] are 10 to 100 nM, less than 10 nM and less than 100 nM.
As to `CCC12CC(C3=C(CN4CCN(c5ccc(C(=O)NS(=O)(=O)c6ccc(NC[C@H]7CC[C@](C)(O)CC7)c([N+](=O)[O-])c6)c(Oc6cnc7[nH]ccc7c6)c5)CC4)CCC(C)(C)C3)(C1)C2` [Example 27, 2-((1H-pyrrolo[2,3-b]pyridin-5-yl)oxy)-4-(4-((2-(3-ethylbicyclo[1.1.1]pentan-1-yl)-4,4-dimethylcyclohex-1-en-1-yl)methyl)piperazin-1-yl)-N-((4-((((1r,4r)-4-hydroxy-4-methylcyclohexyl)methyl)amino)-3-nitrophenyl)sulfonyl)benzamide], the Kd at Bcl-XL is more than 100 nM; at Bcl-2, less than 10 nM. The IC50 with RS4;11 cells is less than 100 nM.
